Data published in patent publication US10632195B2, “Pharmaceutical device for electric-field assisted administration of Tapentadol and method of administering Tapentadol with same” (Gruenenthal GmbH, priority 2012, dated 2020).
Where “and” joins values, the source holds several entries; their conditions need not be identical. Equal entries are not always repeated. Structures can show the parent of a compound that is named as a salt.

Assay: passive transdermal delivery of Tapentadol hydrochloride, 24 hours, no current (comparative example 1b, passive control)
Format: in vitro ADME, pig
Details: for cumulative, passive delivery across the skin, Mean / cumulative, passive delivery across the skin, as tapentadol base, Mean / drug flux across the skin, Mean / drug flux across the skin, as tapentadol base, Mean: n=2; for cumulative, passive delivery across the skin, Mean / cumulative, passive delivery across the skin, as tapentadol base, Mean / drug flux across the skin, Mean / drug flux across the skin, as tapentadol base, Mean / drug flux across the skin / cumulative, passive delivery across the skin: patch area 0.64 cm^2; for drug flux across the skin, Mean / drug flux across the skin, as tapentadol base, Mean / drug flux across the skin: passive, no current; for drug flux across the skin / cumulative, passive delivery across the skin: single cells 1-2
Experimental: For comparison, the rate of transdermal delivery of Tapentadol hydrochloride for a period of 24 hours has been determined without any means of electric-field-assisted administration (passive control).
The flux of Tapentadol hydrochloride from passive diffusion alone was measured (n=2). The experimental set-up was exactly as previously described, except that no electrodes were placed in the diffusion cell and no current was applied. The temperature was held at 37° C. The receptor solution was sampled and assayed at 0.5, 1, 1.5, 2, 3, 4, 5, 6, 7, 8 and 24 hours. 1 ml of receptor solution was removed and replaced with fresh PBS at each sampling point.

## CC[C@@H](c1cccc(O)c1)[C@@H](C)CN(C)C [Tapentadol hydrochloride]
0.5 h
  cumulative, passive delivery across the skin, Mean: 0 µg
  cumulative, passive delivery across the skin, as tapentadol base, Mean: 0 µg
  drug flux across the skin, Mean: 0 µg/h
  drug flux across the skin, as tapentadol base, Mean: 0 µg/h
  drug flux across the skin: 0 µg/h
  cumulative, passive delivery across the skin: 0 µg
1 h
  cumulative, passive delivery across the skin, Mean: 0 µg
  cumulative, passive delivery across the skin, as tapentadol base, Mean: 0 µg
  drug flux across the skin, Mean: 0 µg/h
  drug flux across the skin, as tapentadol base, Mean: 0 µg/h
  drug flux across the skin: 0 µg/h
  cumulative, passive delivery across the skin: 0 µg
1.5 h
  cumulative, passive delivery across the skin, Mean: 0 µg
  cumulative, passive delivery across the skin, as tapentadol base, Mean: 0 µg
  drug flux across the skin, Mean: 0 µg/h
  drug flux across the skin, as tapentadol base, Mean: 0 µg/h
  drug flux across the skin: 0 µg/h
  cumulative, passive delivery across the skin: 0 µg
2 h
  cumulative, passive delivery across the skin, Mean: 0 µg
  cumulative, passive delivery across the skin, as tapentadol base, Mean: 0 µg
  drug flux across the skin, Mean: 0 µg/h
  drug flux across the skin, as tapentadol base, Mean: 0 µg/h
  drug flux across the skin: 0 µg/h
  cumulative, passive delivery across the skin: 0 µg
3 h
  cumulative, passive delivery across the skin, Mean: 2 µg
  cumulative, passive delivery across the skin, as tapentadol base, Mean: 1 µg
  drug flux across the skin, Mean: 1 µg/h
  drug flux across the skin, as tapentadol base, Mean: 1 µg/h
  drug flux across the skin: 1 µg/h
3 h, listed as Tapentadol HCl, hydrochloride
  cumulative, passive delivery across the skin: 2 µg and 1 µg
4 h
  cumulative, passive delivery across the skin, Mean: 4 µg
  cumulative, passive delivery across the skin, as tapentadol base, Mean: 3 µg
  drug flux across the skin, Mean: 2 µg/h
  drug flux across the skin, as tapentadol base, Mean: 2 µg/h
  drug flux across the skin: 2 µg/h
4 h, listed as Tapentadol HCl, hydrochloride
  cumulative, passive delivery across the skin: 4 µg and 3 µg
5 h
  cumulative, passive delivery across the skin, Mean: 6 µg
  cumulative, passive delivery across the skin, as tapentadol base, Mean: 5 µg
  drug flux across the skin, Mean: 3 µg/h
  drug flux across the skin, as tapentadol base, Mean: 2 µg/h
5 h, hydrochloride
  drug flux across the skin: 3 µg/h and 2 µg/h
5 h, listed as Tapentadol HCl, hydrochloride
  cumulative, passive delivery across the skin: 7 µg and 5 µg
6 h
  cumulative, passive delivery across the skin, Mean: 9 µg
  cumulative, passive delivery across the skin, as tapentadol base, Mean: 8 µg
  drug flux across the skin, Mean: 3 µg/h
  drug flux across the skin, as tapentadol base, Mean: 3 µg/h
6 h, hydrochloride
  drug flux across the skin: 4 µg/h and 3 µg/h
6 h, listed as Tapentadol HCl, hydrochloride
  cumulative, passive delivery across the skin: 11 µg and 8 µg
7 h
  cumulative, passive delivery across the skin, Mean: 13 µg
  cumulative, passive delivery across the skin, as tapentadol base, Mean: 11 µg
  drug flux across the skin, Mean: 3 µg/h
  drug flux across the skin, as tapentadol base, Mean: 3 µg/h
7 h, hydrochloride
  drug flux across the skin: 4 µg/h and 3 µg/h
7 h, listed as Tapentadol HCl, hydrochloride
  cumulative, passive delivery across the skin: 14 µg and 11 µg
8 h
  cumulative, passive delivery across the skin, Mean: 18 µg
  cumulative, passive delivery across the skin, as tapentadol base, Mean: 15 µg
  drug flux across the skin, Mean: 5 µg/h
  drug flux across the skin, as tapentadol base, Mean: 4 µg/h
8 h, hydrochloride
  drug flux across the skin: 5 µg/h and 4 µg/h
8 h, listed as Tapentadol HCl, hydrochloride
  cumulative, passive delivery across the skin: 20 µg and 15 µg
24 h
  cumulative, passive delivery across the skin, Mean: 186 µg
  cumulative, passive delivery across the skin, as tapentadol base, Mean: 159 µg
  drug flux across the skin, Mean: 11 µg/h
  drug flux across the skin, as tapentadol base, Mean: 9 µg/h
24 h, hydrochloride
  drug flux across the skin: 11 µg/h and 10 µg/h
24 h, listed as Tapentadol HCl, hydrochloride
  cumulative, passive delivery across the skin: 192 µg and 179 µg
By 24 hours
  rate of passive diffusion: 16 μg/h/cm2
Comparative example 1b, passive diffusion
  time within which steady state flux was not reached: > 8 h
